Article PMC10047490, “Novel Generation of FAP Inhibitor-Based Homodimers for Improved Application in Radiotheranostics” (Cancers, 2023)
Like-named read-outs stand apart in the source and are kept apart here.

Experiments:
FAP = conditions: different assay conditions; cited from earlier work
[1] = biological target: T1, rhFAP (recombinant human fibroblast activation protein) (Homo sapiens, UniProt Q12884); experiment: In vitro inhibition assay (IC50), FAP, substrate Z-Gly-Pro-AMC; type: biochemical; conditions: for IC50 values for FAP (in words): summary statement on Table 3
T1 construct: made in house
T1 sequence (Q12884 1-760): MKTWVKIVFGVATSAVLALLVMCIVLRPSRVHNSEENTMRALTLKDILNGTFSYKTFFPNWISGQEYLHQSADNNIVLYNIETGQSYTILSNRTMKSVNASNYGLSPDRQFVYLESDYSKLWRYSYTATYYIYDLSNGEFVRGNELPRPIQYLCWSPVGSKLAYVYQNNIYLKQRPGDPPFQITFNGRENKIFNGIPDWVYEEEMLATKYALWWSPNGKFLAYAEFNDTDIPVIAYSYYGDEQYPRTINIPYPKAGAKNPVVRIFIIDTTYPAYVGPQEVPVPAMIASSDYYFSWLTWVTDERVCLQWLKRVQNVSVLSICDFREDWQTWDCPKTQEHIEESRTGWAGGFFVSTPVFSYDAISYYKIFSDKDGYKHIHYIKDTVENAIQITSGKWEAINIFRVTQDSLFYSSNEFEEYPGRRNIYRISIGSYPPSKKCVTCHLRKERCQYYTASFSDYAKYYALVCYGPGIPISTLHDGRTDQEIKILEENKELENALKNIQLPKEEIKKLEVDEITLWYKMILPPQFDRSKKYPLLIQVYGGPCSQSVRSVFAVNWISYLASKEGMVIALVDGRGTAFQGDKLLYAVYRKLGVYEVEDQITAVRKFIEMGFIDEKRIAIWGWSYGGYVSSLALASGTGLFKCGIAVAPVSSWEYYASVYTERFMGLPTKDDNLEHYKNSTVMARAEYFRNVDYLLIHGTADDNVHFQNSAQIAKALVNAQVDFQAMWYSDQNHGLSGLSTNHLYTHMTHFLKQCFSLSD
Procedure: (§1) rhFAP (recombinant human fibroblast activation protein), DPP8 (dipeptidyl peptidase VIII) and DPP9 (dipeptidyl peptidase IX) were expressed and purified as described previously. DPP4 (dipeptidyl peptidase IV) was purified from human seminal plasma as described previously. Human recombinant PREP (prolylendopeptidase) was expressed and purified as described before.
(§2) IC50 measurements for FAP and PREP were carried out as described before. […] For PREP, N-succinyl-Gly-Pro-AMC (Bachem) at a final concentration of 250 µM at pH 7.4 in 0.1 M K-phosphate, 1 mM EDTA, 1 mM DTT and 1 mg/mL BSA buffer was used.
(§3) All enzymatic activities were determined kinetically for 15 min at 37 °C by measuring initial velocities of AMC release (λex = 380 nm and λem = 465 nm) or pNA release (405 nm) from the substrates mentioned above with an Infinite 200 plate reader from Tecan Group Ltd. (Männedorf, Switzerland). The Magellan software was used to process the data, and data fitting was performed using a non-linear fitting model in Grafit 7.4. All IC50 measurements were carried out in triplicate with at least eight different inhibitor concentrations tested.

[2] = biological target: T2, Human recombinant PREP (prolylendopeptidase) (Homo sapiens, UniProt P48147); experiment: In vitro inhibition assay (IC50), PREP, substrate N-succinyl-Gly-Pro-AMC; type: biochemical; conditions: for IC50: 250 µM N-succinyl-Gly-Pro-AMC, pH 7.4, 37 °C; for SI(PREP/FAP): selectivity index = IC50(PREP)/IC50(FAP)
T2 construct: made in house
T2 sequence (P48147 1-710): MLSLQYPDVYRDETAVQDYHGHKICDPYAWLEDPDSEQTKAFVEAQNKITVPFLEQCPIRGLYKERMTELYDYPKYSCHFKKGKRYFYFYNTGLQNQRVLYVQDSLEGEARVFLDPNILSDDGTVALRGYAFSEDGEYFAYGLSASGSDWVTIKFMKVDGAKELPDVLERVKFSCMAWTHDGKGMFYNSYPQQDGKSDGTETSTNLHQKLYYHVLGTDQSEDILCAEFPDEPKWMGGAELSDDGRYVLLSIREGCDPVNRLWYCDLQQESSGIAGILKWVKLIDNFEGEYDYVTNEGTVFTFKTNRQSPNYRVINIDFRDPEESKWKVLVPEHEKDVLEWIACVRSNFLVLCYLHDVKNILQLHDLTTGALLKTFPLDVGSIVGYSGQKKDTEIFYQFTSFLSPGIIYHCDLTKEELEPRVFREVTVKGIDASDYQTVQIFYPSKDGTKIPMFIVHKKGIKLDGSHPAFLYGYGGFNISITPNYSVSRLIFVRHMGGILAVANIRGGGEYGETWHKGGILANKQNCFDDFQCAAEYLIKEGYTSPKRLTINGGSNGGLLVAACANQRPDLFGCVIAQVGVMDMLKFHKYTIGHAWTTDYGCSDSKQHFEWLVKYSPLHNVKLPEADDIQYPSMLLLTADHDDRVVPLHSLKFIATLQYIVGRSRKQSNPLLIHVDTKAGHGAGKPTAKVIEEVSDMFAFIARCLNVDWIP
Procedure: as §1, §2, §3

[3] = biological target: T3, DPP4 (dipeptidyl peptidase IV) purified from human seminal plasma (Homo sapiens, UniProt P27487); experiment: In vitro inhibition assay (IC50), DPP4, substrate Ala-Pro-pNA; type: biochemical; conditions: for IC50: 25 µM Ala-Pro-pNA, pH 7.4, 37 °C; for SI(DPP4/FAP): selectivity index = IC50(DPP4)/IC50(FAP)
T3 construct: DPP4 (dipeptidyl peptidase IV) was purified from human seminal plasma; from tissue; host or cells: human seminal plasma
Procedure: as §1, §3

[4] = biological target: T4, DPP8 (dipeptidyl peptidase VIII) (Homo sapiens, UniProt Q6V1X1); experiment: In vitro inhibition assay (IC50), DPP8, substrate Ala-Pro-pNA; type: biochemical; conditions: for IC50: 300 µM Ala-Pro-pNA, pH 7.4, 37 °C
T4 construct: made in house
Procedure: as §1, §3

[5] = biological target: T5, DPP9 (dipeptidyl peptidase IX) (Homo sapiens, UniProt Q86TI2); experiment: In vitro inhibition assay (IC50), DPP9, substrate Ala-Pro-pNA; type: biochemical; conditions: for IC50: 150 µM Ala-Pro-pNA, pH 7.4, 37 °C; for SI(DPP9/FAP): selectivity index = IC50(DPP9)/IC50(FAP)
T5 construct: made in house
Procedure: as §1, §3

[6] = biological target: T4, DPP8 (dipeptidyl peptidase VIII); conditions: from previous works; cited from earlier work

T3 sequence (P27487 whole entry): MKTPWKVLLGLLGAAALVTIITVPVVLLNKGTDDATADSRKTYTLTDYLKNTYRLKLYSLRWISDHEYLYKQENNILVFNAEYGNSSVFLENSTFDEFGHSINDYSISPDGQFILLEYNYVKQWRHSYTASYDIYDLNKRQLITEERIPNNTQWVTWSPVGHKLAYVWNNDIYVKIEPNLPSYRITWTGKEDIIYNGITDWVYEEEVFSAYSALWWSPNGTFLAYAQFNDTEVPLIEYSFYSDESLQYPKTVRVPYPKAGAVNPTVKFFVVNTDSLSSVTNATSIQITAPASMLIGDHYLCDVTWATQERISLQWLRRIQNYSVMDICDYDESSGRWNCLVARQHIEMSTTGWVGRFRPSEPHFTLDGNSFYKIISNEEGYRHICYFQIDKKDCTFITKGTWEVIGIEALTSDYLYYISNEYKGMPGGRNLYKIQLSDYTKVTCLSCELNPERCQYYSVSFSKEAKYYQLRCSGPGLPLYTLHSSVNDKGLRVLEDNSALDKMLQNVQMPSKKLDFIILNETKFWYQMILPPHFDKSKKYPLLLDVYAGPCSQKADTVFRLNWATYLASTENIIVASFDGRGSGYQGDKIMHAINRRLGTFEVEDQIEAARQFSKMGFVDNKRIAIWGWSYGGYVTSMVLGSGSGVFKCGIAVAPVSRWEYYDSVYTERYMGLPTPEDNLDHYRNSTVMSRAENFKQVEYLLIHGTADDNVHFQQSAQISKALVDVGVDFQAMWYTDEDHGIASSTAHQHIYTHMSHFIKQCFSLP
T4 sequence (Q6V1X1 whole entry, species assumed): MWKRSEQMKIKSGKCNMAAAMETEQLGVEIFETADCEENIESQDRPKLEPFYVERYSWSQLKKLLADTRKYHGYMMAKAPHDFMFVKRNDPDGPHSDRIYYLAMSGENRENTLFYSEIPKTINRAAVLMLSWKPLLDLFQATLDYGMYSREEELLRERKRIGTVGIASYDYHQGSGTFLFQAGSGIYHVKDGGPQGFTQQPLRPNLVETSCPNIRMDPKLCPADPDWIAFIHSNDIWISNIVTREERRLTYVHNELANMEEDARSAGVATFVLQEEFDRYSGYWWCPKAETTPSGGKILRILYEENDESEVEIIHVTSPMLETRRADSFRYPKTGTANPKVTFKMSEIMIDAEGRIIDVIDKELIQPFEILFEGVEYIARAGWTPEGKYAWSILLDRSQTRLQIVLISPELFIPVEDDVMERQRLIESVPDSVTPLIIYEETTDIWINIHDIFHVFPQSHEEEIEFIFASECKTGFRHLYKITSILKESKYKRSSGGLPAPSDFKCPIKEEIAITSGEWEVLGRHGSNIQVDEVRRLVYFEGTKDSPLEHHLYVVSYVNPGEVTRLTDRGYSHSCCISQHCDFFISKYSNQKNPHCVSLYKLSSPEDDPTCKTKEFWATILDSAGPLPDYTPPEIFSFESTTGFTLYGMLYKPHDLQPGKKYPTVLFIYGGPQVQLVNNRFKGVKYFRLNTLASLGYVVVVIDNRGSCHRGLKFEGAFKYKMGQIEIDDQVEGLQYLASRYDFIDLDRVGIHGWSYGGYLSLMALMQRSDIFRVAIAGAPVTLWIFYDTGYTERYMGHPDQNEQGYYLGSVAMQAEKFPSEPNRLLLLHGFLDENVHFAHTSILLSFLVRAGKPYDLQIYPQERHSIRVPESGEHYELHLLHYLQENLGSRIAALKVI
T5 sequence (Q86TI2 whole entry, species assumed): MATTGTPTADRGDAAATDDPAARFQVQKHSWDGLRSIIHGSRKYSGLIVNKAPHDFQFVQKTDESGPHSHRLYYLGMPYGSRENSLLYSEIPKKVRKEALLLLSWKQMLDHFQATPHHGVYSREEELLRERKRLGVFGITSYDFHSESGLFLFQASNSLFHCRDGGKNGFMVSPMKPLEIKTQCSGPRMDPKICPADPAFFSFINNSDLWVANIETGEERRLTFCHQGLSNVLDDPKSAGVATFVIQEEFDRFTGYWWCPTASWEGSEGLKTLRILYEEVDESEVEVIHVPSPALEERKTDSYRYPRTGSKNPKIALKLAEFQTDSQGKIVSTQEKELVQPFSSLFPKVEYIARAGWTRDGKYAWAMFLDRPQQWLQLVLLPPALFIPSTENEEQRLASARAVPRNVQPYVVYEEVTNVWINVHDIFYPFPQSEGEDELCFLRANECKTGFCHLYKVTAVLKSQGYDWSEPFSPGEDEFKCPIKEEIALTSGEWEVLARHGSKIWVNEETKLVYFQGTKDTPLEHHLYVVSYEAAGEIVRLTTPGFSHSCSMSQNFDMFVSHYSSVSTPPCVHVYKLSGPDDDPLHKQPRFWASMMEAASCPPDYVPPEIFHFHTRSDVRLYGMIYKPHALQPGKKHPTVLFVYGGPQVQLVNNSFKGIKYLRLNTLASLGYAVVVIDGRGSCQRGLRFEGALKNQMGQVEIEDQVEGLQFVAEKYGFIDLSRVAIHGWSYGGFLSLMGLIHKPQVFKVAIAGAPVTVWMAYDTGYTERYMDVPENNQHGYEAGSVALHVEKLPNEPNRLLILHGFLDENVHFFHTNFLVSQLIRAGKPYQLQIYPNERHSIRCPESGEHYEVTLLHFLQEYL

SMILES	IC50 (FAP)	IC50 values for FAP (in words) [1]	IC50 [2]	SI(PREP/FAP) [2]	IC50 [3]	SI(DPP4/FAP) [3]	IC50 [4]	SI(DPP8/FAP) ([4]; selectivity index = IC50(DPP8)/IC50(FAP))	IC50 [5]	SI(DPP9/FAP) [5]	IC50 ([1]; 50 µM Z-Gly-Pro-AMC, pH 8.0, 37 °C, triplicate)	IC50 [6]
N#C[C@@H]1CC(F)(F)CN1C(=O)CNC(=O)c1ccnc2c(NC(=O)CCC(=O)NCCCC[C@H](NC(=O)CCC(=O)Nc3cccc4c(C(=O)NCC(=O)N5CC(F)(F)C[C@H]5C#N)ccnc34)C(=O)NCCNC(=O)CC[C@H](C(=O)O)N3CCN(CC(=O)O)CCN(CC(=O)O)CCN(CC(=O)O)CC3)cccc12 [BiOncoFAP-DOTAGA]	0.17 nM	–	–	–	–	–	–	–	–	–	–	–
N#C[C@@H]1CC(F)(F)CN1C(=O)CNC(=O)c1ccnc2ccc(OCCCCNC(=O)CC[C@H](NC(=O)CN3CCN(CC(=O)O)CCN(CC(=O)O)CCN(CC(=O)O)CC3)C(=O)NCCCCOc3ccc4nccc(C(=O)NCC(=O)N5CC(F)(F)C[C@H]5C#N)c4c3)cc12 [DO3A.Glu.(FAPi)2, 2,2′,2″-(10-(2-(((S)-1,5-bis((4-((4-((2-((S)-2-Cyano-4,4-difluoropyrrolidin-1-yl)-2-oxoethyl)-carbamoyl)quinolin-6-yl)oxy)butyl)amino)-1,5-dioxopentan-2-yl)amino)-2-oxoethyl)-1,4,7,10-tetraazacyclododecane-1,4,7-triyl)triacetic acid]	–	subnanomolar	1000 ± 140 nM	1667	540 ± 60 nM	900	1030 ± 180 nM	1717	950 ± 110 nM	1583	–	–
N#C[C@@H]1CC(F)(F)CN1C(=O)CNC(=O)c1ccnc2ccc(OCCCCNC(=O)CC[C@H](NC(=O)CCC(C(=O)O)N3CCN(CC(=O)O)CCN(CC(=O)O)CCN(CC(=O)O)CC3)C(=O)NCCCCOc3ccc4nccc(C(=O)NCC(=O)N5CC(F)(F)C[C@H]5C#N)c4c3)cc12 (stereo partly drawn) [DOTAGA.Glu.(FAPi)2, 2,2′,2″-(10-(4-(((S)-1,5-bis((4-((4-((2-((S)-2-Cyano-4,4-difluoropyrrolidin-1-yl)-2-oxoethyl)-carbamoyl)quinolin-6-yl)oxy)butyl)amino)-1,5-dioxopentan-2-yl)amino)-1-carboxy-4-oxobutyl)-1,4,7,10-tetraazacyclododecane-1,4,7-triyl)triacetic acid]	–	subnanomolar	590 ± 100 nM	2269	1190 ± 80 nM	4577	29 ± 4 nM	–	83 ± 1.5 nM	319	0.26 ± 0.04 nM	–
N#C[C@@H]1CC(F)(F)CN1C(=O)CNC(=O)c1ccnc2ccccc12 [UAMC-1110]	–	–	–	–	–	–	–	–	–	–	–	> 10000 nM
